Tested on: aged-impaired (AI) rats
Test: eight-arm Radial Arm Maze (RAM) task with one-hour delay, spatial memory retention
Assay type: in vivo, rat
Details: for average no. of errors ± SEM: one-hour delay, vehicle 2.00 ± 0.42
Protocol: FIG. 3 depicts the effects of administering levetiracetam on the spatial memory retention of ten aged-impaired rats (AI) in an eight-arm Radial Arm Maze (RAM) test. Six treatment conditions were employed: vehicle control, levetiracetam (1.25 mg/kg), levetiracetam (2.5 mg/kg), levetiracetam (5 mg/kg), levetiracetam (10 mg/kg) and levetiracetam (20 mg/kg). In the RAM task used, there was a one-hour delay between presentation of a subset of arms (5 arms available and 3 arms blocked) and completion of the eight-arm win-shift task (eight arms available). Rats were pre-treated 30 - 40 minutes before daily trials with a one-time drug/control treatment. The number of errors made by the rats after the delay was used as a measure of spatial memory retention. Errors were defined as instances when rats entered an arm from which food had already been retrieved in the pre-delay component of the trial or when rats re-visited an arm in the post-delay session that had already been visited. Paired t-tests were used to compare the number of errors between different doses of levetiracetam and vehicle control.
The effects of levetiracetam on the spatial memory retention of aged-impaired (AI) rats were assessed in a Radial Arm Maze (RAM) behavioral task using vehicle control and five different dosage levels of levetiracetam (1.25 mg/kg/day, 2.5 mg/kg/day, 5 mg/kg/day, 10 mg/kg/day and 20 mg/kg/day). RAM behavioral tasks were preformed on ten AI rats. All six treatment conditions were tested on all ten rats, as described above for the MWM test.
The RAM apparatus used consisted of eight equidistantly-spaced arms. An elevated maze arm (7 cm width x 75 cm length) projected from each facet of an octagonal center platform (30 cm diameter, 51.5 cm height). Clear side walls on the arms were 10 cm high and were angled at 65° to form a trough. A food well (4 cm diameter, 2 cm deep) was located at the distal end of each arm. Froot Loops™ (Kellogg Company) were used as rewards. Blocks constructed of Plexiglas™ (30 cm height x 12 cm width) could be positioned to prevent entry to any arm. Numerous extra maze cues surrounding the apparatus were also provided.
The AI rats were initially subjected to a pre-training test (Chappell et al. Neuropharmacology 37: 481-487, 1998). The pre-training test consisted of a habituation phase (4 days), a training phase on the standard win-shift task (18 days) and another training phase (14 days) in which a brief delay was imposed between presentation of a subset of arms designated by the experimenter (e.g., 5 arms available and 3 arms blocked) and completion of the eight-arm win-shift task (i.e., with all eight arms available).
In the habituation phase, rats were familiarized to the maze for an 8-minute session on four consecutive days. In each of these sessions food rewards were scattered on the RAM, initially on the center platform and arms and then progressively confined to the arms. After this habituation phase, a standard training protocol was used, in which a food pellet was located at the end of each arm. Rats received one trial each day for 18 days. Each daily trial terminated when all eight food pellets had been obtained or when either 16 choices were made or 15 minutes had elapsed. After completion of this training phase, a second training phase was carried out in which the memory demand was increased by imposing a brief delay during the trial. At the beginning of each trial, three arms of the eight-arm maze were blocked. Rats were allowed to obtain food on the five arms to which access was permitted during this initial 'information phase' of the trial. Rats were then removed from the maze for 60 seconds, during which time the barriers on the maze were removed, thus allowing access to all eight arms. Rats were then placed back onto the center platform and allowed to obtain the remaining food rewards during this 'retention test' phase of the trial. The identity and configuration of the blocked arms varied across trials. […]

With `CC[C@@H](C(N)=O)N1CCCC1=O` [levetiracetam, (2S)-2-(2-oxopyrrolidin-1-yl) butanamide] the “average no. of errors ± SEM” value (5 mg/kg/day i.p.) was 0.75 ± 0.32, the “memory performance relative to vehicle control” value (5 mg/kg/day, t(9) = 2.18, p = 0.057) was “significantly improved memory performance” and the “average no. of errors ± SEM” value (10 mg/kg/day i.p.) was 0.80 ± 0.27. The “memory performance relative to vehicle control” value (10 mg/kg/day, t(9) = 2.37, p = 0.042) was “significantly improved memory performance”, the “performance of AI rats in the radial maze task” value (levetiracetam 20 mg/kg) was “fails to improve the performace” and the “effective in reducing the number of errors, on its own” value (levetiracetam i.p. 1.25 mg/kg) was “not”. The “effective in reducing the number of errors, on its own” value (levetiracetam i.p. 2.5 mg/kg) was “not” and the “effective in reducing the number of errors, on its own” value (levetiracetam i.p. 5-10 mg/kg) was “effective”.

Reference: patent US20230033195A1, “METHODS AND COMPOSITIONS FOR IMPROVING COGNITIVE FUNCTION” (THE JOHNS HOPKINS UNIVERSITY, priority 2011, published 2023)
